{
  "source": "patent US20060122181A1",
  "about": "“Heteroaromatic pentacyclic compound and medicinal use thereof” (Japan Tobacco Inc., priority 2003, published 2006)",
  "data": [
    {"values": [
      {"smiles": "CCC(CC)c1ccc(N(Cc2ccc(-c3csc(CNc4cccc(C(=O)O)c4)n3)cc2)C(C)C)cc1", "note": "[Example 1-92]", "melting point": "159 to 160 °C"},
      {"smiles": "CCC(CC)N(Cc1ccc(-c2csc(CN3Cc4ccccc4C[C@H]3C(=O)O)n2)cc1)c1ccc(C(C)C)cc1", "note": "[Example 1-35]", "melting point": "110 to 113 °C"},
      {"smiles": "CCCC(CCC)c1ccc(CN(CC(=O)O)Cc2nc(-c3ccc(N(C)Cc4ccccc4)cc3)cs2)cc1", "note": "[Example 3-48]", "melting point": "137 to 140 °C"},
      {"smiles": "CCCC(CCC)c1ccc(Cn2cc(-c3csc(CN4C[C@H](O)C[C@H]4C(=O)O)n3)c3ccccc32)cc1", "note": "[Example 1-180]", "melting point": "105 to 107 °C"},
      {"smiles": "CC(C)c1ccc(Cn2c(-c3csc(CN4CCN(c5cccc(C(=O)O)c5)CC4)n3)nc3ccc(N4CCOCC4)cc32)cc1", "note": "[Example 1-186]", "melting point": "128.5 to 131.5 °C"},
      {"smiles": "CCCC(CCC)c1ccc(CN(C)c2ccc(-c3csc(CN(CC(=O)O)C(=O)c4ccc(C)cc4)n3)cc2)cc1", "note": "[Example 3-62]", "melting point": "114 to 117 °C"},
      {"smiles": "CCCC(CCC)c1ccc(COc2ccc(-c3csc(CN(CC(=O)O)Cc4cscn4)n3)c(C)c2)cc1", "note": "[Example 3-121]", "melting point": "103 to 104 °C"},
      {"smiles": "CCCC(CCC)c1ccc(OCc2ccc(-c3ccc(CN(CC(=O)OCC)Cc4nc5ccccc5n4C)s3)cc2)cc1", "note": "[Example 4-83]", "melting point": "82 to 84 °C"},
      {"smiles": "CCC(CC)c1ccc(N(Cc2ccc(-c3csc(COc4cncc(C(=O)OC)c4)n3)cc2)C(C)C)cc1", "note": "[Example 1-89]", "melting point": "111 to 113 °C"},
      {"smiles": "CCC(CC)c1ccc(N(Cc2ccc(-c3csc(CN(C)[C@@H](Cc4ccccc4)C(=O)O)n3)cc2)C(C)C)cc1", "note": "[Example 1-22]", "melting point": "80 °C"},
      {"smiles": "CCCC(CCC)c1ccc(OCc2ccc(-c3csc(COc4ccc(C(=O)O)cc4)n3)cc2)cc1", "note": "[Example 1-49]", "melting point": "199 to 202 °C"},
      {"smiles": "CCCC(CCC)c1ccc(CN2CCCc3cc(-c4csc(CN(CC(=O)O)Cc5nc(C(C)(C)C)cs5)n4)ccc32)cc1", "note": "[Example 3-125]", "melting point": "132 to 135 °C"},
      {"smiles": "CCCC(CCC)c1ccc(CN(CC)C(=O)c2ccc(-c3csc(CN(CC(=O)O)Cc4ccccc4)n3)cc2)cc1", "note": "[Example 1-57]", "melting point": "59 to 65 °C"},
      {"smiles": "CN(Cc1ccc(C2CCCCC2)cc1)c1ccc(-c2csc(CN(C)c3ccc(C(=O)O)cn3)n2)cc1", "note": "[Example 3-84]", "melting point": "226 to 228 °C"},
      {"smiles": "CCCC(CCC)c1ccc(N(Cc2ccc(-c3csc(COc4cncc(C(=O)O)c4)n3)cc2)C(C)C)cc1.[Na+]", "note": "[Example 1-68]", "melting point": "185 °C (dec.)"},
      {"smiles": "CCC(CC)c1ccc(N(Cc2ccc(-c3csc(CN4Cc5ccccc5CC4C(=O)O)n3)cc2)C(C)C)cc1", "note": "(stereo not drawn) [Example 1-32]", "melting point": "127.5 °C"},
      {"smiles": "CCCC(CCC)c1ccc(COc2ccc(-c3csc(CN4CCN(c5ccc(C(=O)O)cc5)CC4)n3)cc2)cc1", "note": "[Example 3-127]", "melting point": "241 to 243 °C"},
      {"smiles": "CCCC(CCC)c1ccc(N(C)Cc2ccc(-c3csc(CN(C)S(=O)(=O)CCCC(=O)[O-])n3)cc2)cc1.[Na+]", "note": "[Example 1-16]", "melting point": "217 to 220 °C"},
      {"smiles": "CCCC(CCC)c1ccc(Cn2c(-c3csc(CN4CCc5ccc(C(=O)O)cc5C4)n3)nc3ccccc32)cc1", "note": "[Example 1-169]", "melting point": "189.2 to 190.3 °C"},
      {"smiles": "CCCC(CCC)N(Cc1ccc(-c2csc(COc3ccc(C(=O)O)cn3)n2)cc1)c1ccc(C(C)C)cc1", "note": "[Example 1-6]", "melting point": "141 to 143 °C"},
      {"smiles": "CCCC(CCC)c1ccc(CN(C)c2ccc(-c3csc(CN(CC(=O)[O-])C(=O)c4ccc(C(C)C)cc4)n3)cc2)cc1.[Na+]", "note": "[Example 3-63]", "melting point": "183 to 188 °C"},
      {"smiles": "CC(C)CCC1(C(=O)O)CCN(Cc2nc(-c3ccc(N(C)Cc4ccc(C5CCCCC5)cc4)cc3)cs2)CC1", "note": "[Example 3-68]", "melting point": "233 to 235 °C"},
      {"smiles": "CCCC(CCC)c1ccc(N(C)Cc2ccc(-c3csc(CSc4ccc(C(=O)O)cc4)n3)cc2)cc1", "note": "[Example 1-14]", "melting point": "122 to 124 °C"},
      {"smiles": "CCCC(CCC)c1ccc(N(Cc2ccc(-c3ccc(COc4cncc(C(=O)O)c4)s3)cc2)C(C)C)cc1", "note": "[Example 4-18]", "melting point": "93 to 98 °C"},
      {"smiles": "CCN(Cc1ccc(C(C)C)cc1)c1ccc(-c2csc(CN(CC(=O)O)Cc3ccc(C(C)C)cc3)n2)cc1", "note": "[Example 3-44]", "melting point": "74 to 78 °C"},
      {"smiles": "CC(C)CCN(CC(=O)O)Cc1nc(-c2ccc(N(C)Cc3ccc(CC(C)C)cc3)cc2)cs1", "note": "[Example 3-93]", "melting point": "155 to 156 °C"},
      {"smiles": "CCCC(CCC)c1ccc(OCc2ccc(-c3csc(CN(C)[C@@H](Cc4ccccc4)C(=O)O)n3)cc2)cc1", "note": "[Example 1-42]", "melting point": "114 to 118 °C"},
      {"smiles": "CCC(CC)c1ccc(COc2ccc(-c3csc(CN(CC(=O)O)Cc4ccc(C(F)(F)F)cc4)n3)cc2)cc1", "note": "[Example 3-16]", "melting point": "136 to 138 °C"},
      {"smiles": "CN(Cc1ccc(CC(C)(C)C)cc1)c1ccc(-c2csc(CN3Cc4ccccc4CC3C(=O)O)n2)cc1", "note": "(stereo not drawn) [Example 3-74]", "melting point": "175 to 177 °C"},
      {"smiles": "CCC(CC)c1ccc(N(Cc2ccc(-c3ccc(CN(CC(=O)O)Cc4nc(C(C)(C)C)cs4)s3)cc2)C(C)C)cc1", "note": "[Example 4-19]", "melting point": "92 to 98 °C"},
      {"smiles": "CCCC(CC)c1ccc(N(Cc2ccc(-c3csc(CN4CCC(C(=O)O)CC4)n3)cc2)C(C)C)cc1", "note": "(stereo not drawn) [Example 1-152]", "melting point": "149 to 151 °C"},
      {"smiles": "CCCC(CCC)c1ccc(COc2ccc(-c3csc(COc4cncc(C(=O)O)c4)n3)cc2OC)cc1", "note": "[Example 3-115]", "melting point": "156 to 158 °C"},
      {"smiles": "CCCC(CCC)c1ccc(OCc2ccc(-c3csc(Cn4nc(C)cc4C(=O)O)n3)cc2)cc1", "note": "[Example 1-176]", "melting point": "141 to 143 °C"},
      {"smiles": "CCCC(CCC)c1ccc(OCc2ccc(-c3csc(CN(CCN)C(=O)c4ccc(C(=O)O)cn4)n3)cc2)cc1.Cl", "melting point": "227 to 229 °C"},
      {"smiles": "O=C(O)c1cccc(C2CCN(Cc3nc(-c4ccc(OCc5ccc(Cl)c(Cl)c5)cc4)cs3)CC2)c1", "note": "[Example 1-173]", "melting point": "197 to 199 °C"},
      {"smiles": "CC(C)(C)Cc1nc2ccccc2n1Cc1ccc(-c2csc(CN(CC(=O)O)Cc3ccccc3)c2)cc1", "note": "[Example 4-85]", "melting point": "161 to 166 °C"},
      {"smiles": "CCCC(CCC)c1ccc(OCc2ccc(-c3csc(CN(CC(=O)O)CC(=O)Nc4ccc(N(C)C)cc4)n3)cc2)cc1", "note": "[Example 1-97]", "melting point": "192.5 °C"},
      {"smiles": "CC(C)Cc1ccc(CN(C)c2ccc(-c3csc(CN(CC(=O)O)C(=O)c4ccccc4)n3)cc2)cc1", "note": "[Example 3-61]", "melting point": "143 to 145 °C"},
      {"smiles": "CCCC(CCC)c1ccc(COc2ccc(-c3csc(COc4cncc(C(=O)O)c4)n3)c(C)c2)cc1", "note": "[Example 3-114]", "melting point": "148 to 150 °C"},
      {"smiles": "CN(Cc1ccc(SCC(C)(C)C)cc1)c1ccc(-c2csc(CN(CC(=O)O)Cc3ccccc3)n2)cc1", "note": "[Example 3-41]", "melting point": "143 °C"},
      {"smiles": "CCC(CC)c1ccc(COc2ccc(-c3csc(CN(CC(=O)O)Cc4ccccc4)n3)cc2)cc1", "note": "[Example 3-11]", "melting point": "144 to 146 °C"},
      {"smiles": "CN(Cc1ccc(C2CCCCC2)cc1)c1ccc(-c2csc(CN(C)S(=O)(=O)CC(=O)O)n2)cc1", "note": "[Example 3-102]", "melting point": "178 to 183 °C"},
      {"smiles": "CCCC(CCC)c1ccc(CN(C)c2ccc(-c3csc(CSc4ccc(C(=O)O)cc4)n3)cc2)cc1", "note": "[Example 3-96]", "melting point": "126 to 127 °C"},
      {"smiles": "CCCC(CCC)c1ccc(OCc2ccc(-c3csc(CN(C)c4ccc(OCC(=O)O)c(C(=O)O)c4)n3)cc2)cc1", "note": "[Example 1-125]", "melting point": "122 °C"},
      {"smiles": "CCCC(CCC)c1ccc(COc2ccc(C)cc2-c2csc(CN(C)c3ccc(C(=O)O)cc3)n2)cc1", "note": "[Example 3-7]", "melting point": "184 to 187 °C"},
      {"smiles": "CCCC(CCC)c1ccc(OCc2ccc(-c3csc(Cn4nc(C(=O)O)cc4C)n3)cc2)cc1", "note": "[Example 1-177]", "melting point": "185 to 194 °C"},
      {"smiles": "CCCC(CCC)c1ccc(OCc2ccc(-c3csc(COc4cncc(C(=O)O)c4)c3)cc2)cc1.O=S(=O)(O)O", "note": "[Example 4-48]", "melting point": "151 to 155 °C (dec.)"},
      {"smiles": "CCCC(CCC)c1ccc(OCc2ccc(-c3ccc(CN(CC(=O)O)Cc4cccc(C(=O)O)c4)s3)cc2)cc1", "note": "[Example 4-76]", "melting point": "202.8 to 206.4 °C"},
      {"smiles": "CN(Cc1ccc(C2CCCCC2)cc1)c1ccc(-c2csc(N(C)Cc3ccc(C(=O)O)o3)n2)cc1", "note": "[Example 3-75]", "melting point": "158 to 161 °C"},
      {"smiles": "CCCC(CCC)c1ccc(OCc2ccc(-c3csc(CN(CC(=O)O)Cc4nc(C(C)(C)C)cs4)c3)cc2)cc1", "note": "[Example 4-15]", "melting point": "166 °C"},
      {"smiles": "CN(Cc1ccc(CC(C)(C)C)cc1)c1ccc(-c2csc(CN(CC(=O)O)C(=O)Nc3ccccc3)n2)cc1", "note": "[Example 3-60]", "melting point": "152 to 153 °C"},
      {"smiles": "CN(Cc1ccccc1)c1ccc(-c2csc(CN(CC(=O)O)C(=O)Cc3csc4ccccc34)n2)cc1", "note": "[Example 3-56]", "melting point": "186 to 188 °C"},
      {"smiles": "CN(Cc1ccc(C2CCCCC2)cc1)c1ccc(-c2csc(CN3CCN(CC(=O)O)CC3)n2)cc1", "note": "[Example 3-111]", "melting point": "190 to 191 °C"},
      {"smiles": "CCC(CC)N(Cc1ccc(-c2csc(COc3ccc(C(=O)O)cn3)n2)cc1)c1ccc(C(C)C)cc1", "note": "[Example 1-11]", "melting point": "155 to 157 °C"},
      {"smiles": "CCCC(CCC)c1ccc(COc2ccc(-c3csc(CN(CC(=O)O)Cc4ccccn4)n3)cc2)cc1", "note": "[Example 3-19]", "melting point": "155 to 156 °C"},
      {"smiles": "CCC(CC)c1ccc(N(Cc2ccc(-c3csc(COc4cc(OC)cc(C(=O)O)c4)n3)cc2)C(C)C)cc1", "note": "[Example 1-63]", "melting point": "131 °C"},
      {"smiles": "CN(Cc1ccc(C2CCCCC2)cc1)c1ccc(-c2csc(CNS(=O)(=O)c3ccc(C(=O)O)cc3)n2)cc1", "note": "[Example 3-97]", "melting point": "202 to 203 °C"},
      {"smiles": "CCCC(CCC)c1ccc(COc2ccc(-c3csc(CSc4ccc(C(=O)O)cc4)n3)cc2)cc1", "note": "[Example 3-3]", "melting point": "117 to 118 °C"},
      {"smiles": "CCCC(CCC)c1ccc(OCc2ccc(-c3ccc(CN(CC(=O)O)Cc4nc5ccccc5[nH]4)s3)cc2)cc1", "note": "[Example 4-8]", "melting point": "173 to 175 °C"},
      {"smiles": "CCCC(CCC)c1ccc(OCc2ccc(-c3csc(CN(CC(=O)O)C(=O)COc4ccc(C(C)C)cc4)n3)cc2)cc1", "note": "[Example 1-135]", "melting point": "192 to 194 °C"},
      {"smiles": "CCC(CC)c1ccc(COc2ccc(-c3csc(CN(CC(=O)O)C(=O)c4ccc(C)cc4)n3)cc2)cc1", "note": "[Example 3-23]", "melting point": "142 to 144 °C"},
      {"smiles": "CCCC(CCC)c1ccc(OCc2ccc(-c3csc(CN(CC(=O)O)CC(=O)Nc4ccc(OC)cc4)n3)cc2)cc1", "note": "[Example 1-98]", "melting point": "176.5 °C"},
      {"smiles": "CN(Cc1ccc(CC(C)(C)C)cc1)c1ccc(-c2csc(CN(C)C(C(=O)O)c3ccccc3)n2)cc1", "note": "(stereo not drawn) [Example 3-88]", "melting point": "171 to 173 °C"}
    ]}
  ]
}
